According to patent publication US8846698B2, “Pyrrolo[2,3-d]pyrimidine tropomysin-related kinase inhibitors” (Pfizer Limited, priority 2011, dated 2014):

Target: TRKA (Homo sapiens (Human), UniProt P04629)
Assay: Isolated TRK enzyme assay (HTRF KinEASE-TK), TRKA
Format: biochemical
Conditions: read-out: Trka enzyme (IC50)

Sequence of TRKA (P04629 441-796): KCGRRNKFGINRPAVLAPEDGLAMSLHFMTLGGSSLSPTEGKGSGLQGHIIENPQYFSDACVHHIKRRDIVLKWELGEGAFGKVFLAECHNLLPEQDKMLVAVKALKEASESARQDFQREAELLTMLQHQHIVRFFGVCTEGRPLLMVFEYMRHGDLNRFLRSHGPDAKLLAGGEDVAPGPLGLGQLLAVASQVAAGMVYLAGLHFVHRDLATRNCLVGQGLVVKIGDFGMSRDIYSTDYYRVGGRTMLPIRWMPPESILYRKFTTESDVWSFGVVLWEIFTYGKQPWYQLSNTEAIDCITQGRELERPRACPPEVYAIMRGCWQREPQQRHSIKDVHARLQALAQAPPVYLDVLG

Row | SMILES | IC50
1 | CC(C(=O)N(C)C)n1cc(C(=O)c2cncc(NC(=O)Cc3ccc(Cl)cc3)c2)c2cncnc21 (racemic) [Example 230, 2-{5-[(5-{[(4-Chlorophenyl)acetyl]amino}pyridin-3-yl)carbonyl]-7H-pyrrolo[2,3-d]pyrimidin-7-yl}-N,N-dimethylpropanamide] | 63.7 nM
2 | CC(CO)n1cc(C(=O)c2cncc(NC(=O)Cc3ccc4cccnc4c3)c2)c2cnc(N)nc21 (single isomer, unassigned) [Example 211, N-(5-{[2-amino-7-(2-hydroxy-1-methylethyl)-7H-pyrrolo[2,3-d]pyrimidin-5-yl]carbonyl}pyridin-3-yl)-2-quinolin-7-ylacetamide] | 34.9 nM
3 | CC(CO)n1cc(C(=O)c2cncc(NC(=O)Cc3ccc(C#N)cc3)c2)c2cnc(N)nc21 (single isomer, unassigned) [Example 212, N-(5-{[2-amino-7-(2-hydroxy-1-methylethyl)-7H-pyrrolo[2,3-d]pyrimidin-5-yl]carbonyl}pyridin-3-yl)-2-(4-cyanophenyl)acetamide] | 59 nM
4 | CC(CO)n1cc(C(=O)c2cncc(NC(=O)Cc3ccc(C#N)cc3)c2)c2cnc(N)nc21 (single isomer, unassigned) [Example 214, N-(5-{[2-amino-7-(2-hydroxy-1-methylethyl)-7H-pyrrolo[2,3-d]pyrimidin-5-yl]carbonyl}pyridin-3-yl)-2-(4-cyanophenyl)acetamide] | 65.9 nM
5 | CC(C)n1cc(C(=O)c2cncc(NC(=O)Cc3ccc(F)cc3)c2)c2cncnc21 [Example 65, 2-(4-fluorophenyl)-N-{5-[(7-isopropyl-7H-pyrrolo[2,3-d]pyrimidin-5-yl)carbonyl]pyridin-3-yl}acetamide] | 55.6 nM
6 | CC(C)n1cc(C(=O)c2cncc(NC(=O)Cc3ccc(C#N)c(C(F)(F)F)c3)c2)c2cncnc21 [Example 72, 2-[4-cyano-3-(trifluoromethyl)phenyl]-N-{5-[(7-isopropyl-7H-pyrrolo[2,3-d]pyrimidin-5-yl)carbonyl]pyridin-3-yl}acetamide] | 63.3 nM
7 | CC(C)n1cc(C(=O)c2cncc(NC(=O)Cc3ccc(OC4CC4)cc3)c2)c2cncnc21 [Example 73, 2-[4-(cyclopropyloxy)phenyl]-N-{5-[(7-isopropyl-7H-pyrrolo[2,3-d]pyrimidin-5-yl)carbonyl]pyridin-3-yl}acetamide] | 283 nM
8 | CC(C)n1cc(C(=O)c2cncc(NC(=O)Cc3cccc(OC4CC4)c3)c2)c2cncnc21 [Example 74, 2-[3-(cyclopropyloxy)phenyl]-N-{5-[(7-isopropyl-7H-pyrrolo[2,3-d]pyrimidin-5-yl)carbonyl]pyridin-3-yl}acetamide] | 1210 nM
9 | CC(C)n1cc(C(=O)c2cncc(NC(=O)Cc3cccc(CO)c3)c2)c2cncnc21 [Example 75, 2-[3-(hydroxymethyl)phenyl]-N-{5-[(7-isopropyl-7H-pyrrolo[2,3-d]pyrimidin-5-yl)carbonyl]pyridin-3-yl}acetamide] | 567 nM
10 | CC(C)n1cc(C(=O)c2cncc(NC(=O)Cc3ccc(C#N)c(F)c3)c2)c2cncnc21 [Example 76, 2-(4-cyano-3-fluorophenyl)-N-{5-[(7-isopropyl-7H-pyrrolo[2,3-d]pyrimidin-5-yl)carbonyl]pyridin-3-yl}acetamide] | 173 nM
11 | COc1cc(CC(=O)Nc2cncc(C(=O)c3cn(C(C)C)c4ncncc34)c2)ccc1C#N [Example 77, 2-(4-cyano-3-methoxyphenyl)-N-{5-[(7-isopropyl-7H-pyrrolo[2,3-d]pyrimidin-5-yl)carbonyl]pyridin-3-yl}acetamide] | 64.3 nM
12 | CC(C)n1cc(C(=O)c2cncc(NC(=O)CN3Cc4ccc(F)cc4C3=O)c2)c2cncnc21 [Example 78, 2-(6-fluoro-1-oxo-1,3-dihydro-2H-isoindol-2-yl)-N-{5-[(7-isopropyl-7H-pyrrolo[2,3-d]pyrimidin-5-yl)carbonyl]pyridin-3-yl}acetamide] | 203 nM
13 | CC(C)n1cc(C(=O)c2cncc(NC(=O)Cn3ccc(-c4ccccn4)n3)c2)c2cncnc21 [Example 79, N-{5-[(7-isopropyl-7H-pyrrolo[2,3-d]pyrimidin-5-yl)carbonyl]pyridin-3-yl}-2-(3-pyridin-2-yl-1H-pyrazol-1-yl)acetamide] | 1580 nM
14 | CC(C)n1cc(C(=O)c2cncc(NC(=O)Cc3ccc4[nH]cnc4c3)c2)c2cncnc21 [Example 80, 2-(1H-benzimidazol-5-yl)-N-{5-[(7-isopropyl-7H-pyrrolo[2,3-d]pyrimidin-5-yl)carbonyl]pyridin-3-yl}acetamide] | 392 nM
15 | CC(C)n1cc(C(=O)c2cncc(NC(=O)Cc3ccc4nccnc4c3)c2)c2cncnc21 [Example 81, N-{5-[(7-isopropyl-7H-pyrrolo[2,3-d]pyrimidin-5-yl)carbonyl]pyridin-3-yl}-2-quinoxalin-6-ylacetamide] | 197 nM
16 | CC(C)n1cc(C(=O)c2cncc(NC(=O)Cc3cnc4cccnc4c3)c2)c2cncnc21 [Example 82, N-{5-[(7-isopropyl-7H-pyrrolo[2,3-d]pyrimidin-5-yl)carbonyl]pyridin-3-yl}-2-(1,5-naphthyridin-3-yl)acetamide] | 908 nM
17 | CC(C)n1cc(C(=O)c2cncc(NC(=O)Cc3ccc4onc(N)c4c3)c2)c2cncnc21 [Example 83, 2-(3-amino-1,2-benzisoxazol-5-yl)-N-{5-[(7-isopropyl-7H-pyrrolo[2,3-d]pyrimidin-5-yl)carbonyl]pyridin-3-yl}acetamide] | 355 nM
18 | CC(C)n1cc(C(=O)c2cncc(NC(=O)Cc3ccc4[nH]c(C(F)(F)F)nc4c3)c2)c2cncnc21 [Example 84, N-{5-[(7-isopropyl-7H-pyrrolo[2,3-d]pyrimidin-5-yl)carbonyl]pyridin-3-yl}-2-[2-(trifluoromethyl)-1H-benzimidazol-5-yl]acetamide] | 2860 nM
19 | CC(C)n1cc(C(=O)c2cncc(NC(=O)Cc3ccn4ccnc4c3)c2)c2cncnc21 [Example 85, 2-imidazo[1,2-a]pyridin-7-yl-N-{5-[(7-isopropyl-7H-pyrrolo[2,3-d]pyrimidin-5-yl)carbonyl]pyridin-3-yl}acetamide] | 70.8 nM
20 | CC(C)n1cc(C(=O)c2cncc(NC(=O)Cn3ncc4ncccc43)c2)c2cncnc21 [Example 86, N-{5-[(7-isopropyl-7H-pyrrolo[2,3-d]pyrimidin-5-yl)carbonyl]pyridin-3-yl}-2-(1H-pyrazolo[4,3-b]pyridin-1-yl)acetamide] | 95.5 nM
21 | CC(C)n1cc(C(=O)c2cncc(NC(=O)Cc3cccc(S(C)(=O)=O)c3)c2)c2cncnc21 [Example 87, N-{5-[(7-isopropyl-7H-pyrrolo[2,3-d]pyrimidin-5-yl)carbonyl]pyridin-3-yl}-2-[3-(methylsulfonyl)phenyl]acetamide] | 63.2 nM
22 | CC(C)n1cc(C(=O)c2cncc(NC(=O)Cn3cc(C4CC4)nn3)c2)c2cncnc21 [Example 88, 2-(4-cyclopropyl-1H-1,2,3-triazol-1-yl)-N-{5-[(7-isopropyl-7H-pyrrolo[2,3-d]pyrimidin-5-yl)carbonyl]pyridin-3-yl}acetamide] | 56.6 nM

The next compounds have a lower IC50 than those just listed; values first:

Row | IC50 | SMILES
23 | 31.6 nM | CC(CO)n1cc(C(=O)c2cncc(NC(=O)Cc3ccc4cccnc4c3)c2)c2cnc(N)nc21 (single isomer, unassigned) [Example 216, N-(5-{[2-amino-7-(2-hydroxy-1-methylethyl)-7H-pyrrolo[2,3-d]pyrimidin-5-yl]carbonyl}pyridin-3-yl)-2-quinolin-7-ylacetamide]
24 | 22.8 nM | CC(C)n1cc(C(=O)c2cncc(NC(=O)Cc3ccccc3OC3CC3)c2)c2cncnc21 [Example 70, 2-[2-(cyclopropyloxy)phenyl]-N-{5-[(7-isopropyl-7H-pyrrolo[2,3-d]pyrimidin-5-yl)carbonyl]pyridin-3-yl}acetamide]
25 | 21.7 nM | CC(C)n1cc(C(=O)c2cncc(NC(=O)Cc3ccc4ocnc4c3)c2)c2cncnc21 [Example 89, 2-(1,3-benzoxazol-5-yl)-N-{5-[(7-isopropyl-7H-pyrrolo[2,3-d]pyrimidin-5-yl)carbonyl]pyridin-3-yl}acetamide]
26 | 12.1 nM | CC(C)n1cc(C(=O)c2cncc(NC(=O)Cc3ccc(Cl)c(Cl)c3)c2)c2cncnc21 [Example 68, 2-(3,4-dichlorophenyl)-N-{5-[(7-isopropyl-7H-pyrrolo[2,3-d]pyrimidin-5-yl)carbonyl]pyridin-3-yl}acetamide]
27 | 10.9 nM | CC(C)n1cc(C(=O)c2cncc(NC(=O)Cc3ccc(Cl)cc3)c2)c2cncnc21 [Example 69, 2-(4-chlorophenyl)-N-{5-[(7-isopropyl-7H-pyrrolo[2,3-d]pyrimidin-5-yl)carbonyl]pyridin-3-yl}acetamide]
28 | 8.81 nM | CC(C)n1cc(C(=O)c2cncc(NC(=O)Cn3ccc(C4CC4)n3)c2)c2cncnc21 [Example 90, 2-(3-cyclopropyl-1H-pyrazol-1-yl)-N-{5-[(7-isopropyl-7H-pyrrolo[2,3-d]pyrimidin-5-yl)carbonyl]pyridin-3-yl}acetamide]
29 | 4.4 nM | CC(CO)n1cc(C(=O)c2cncc(NC(=O)Cc3cccc(C(F)(F)F)c3)c2)c2cnc(N)nc21 (single isomer, unassigned) [Example 215, N-(5-{[2-amino-7-(2-hydroxy-1-methylethyl)-7H-pyrrolo[2,3-d]pyrimidin-5-yl]carbonyl}pyridin-3-yl)-2-[3-(trifluoromethyl)phenyl]acetamide]
30 | 4.15 nM | CC(C)n1cc(C(=O)c2cncc(NC(=O)Cc3ccc(C(F)(F)F)cc3)c2)c2cncnc21 [Example 67, N-{5-[(7-isopropyl-7H-pyrrolo[2,3-d]pyrimidin-5-yl)carbonyl]pyridin-3-yl}-2-[4-(trifluoromethyl)phenyl]acetamide]
31 | 3.55 nM | CC(C)n1cc(C(=O)c2cncc(NC(=O)Cc3cccc(C(F)(F)F)c3)c2)c2cncnc21 [Example 66, N-{5-[(7-isopropyl-7H-pyrrolo[2,3-d]pyrimidin-5-yl)carbonyl]pyridin-3-yl}-2-[3-(trifluoromethyl)phenyl]acetamide]
32 | 3.03 nM | CC(CO)n1cc(C(=O)c2cncc(NC(=O)Cc3cccc(C(F)(F)F)c3)c2)c2cnc(N)nc21 (single isomer, unassigned) [Example 213, N-(5-{[2-amino-7-(2-hydroxy-1-methylethyl)-7H-pyrrolo[2,3-d]pyrimidin-5-yl]carbonyl}pyridin-3-yl)-2-[3-(trifluoromethyl)phenyl]acetamide]
